In the assay the target is T1, β-Galactosidase from Aspergillus oryzae (Aspergillus oryzae, UniProt Q2UCU3).
T1 construct: gene lacA; commercial secreted enzyme (Sigma-Aldrich), no catalogue number
T1 sequence (Q2UCU3 19-1005): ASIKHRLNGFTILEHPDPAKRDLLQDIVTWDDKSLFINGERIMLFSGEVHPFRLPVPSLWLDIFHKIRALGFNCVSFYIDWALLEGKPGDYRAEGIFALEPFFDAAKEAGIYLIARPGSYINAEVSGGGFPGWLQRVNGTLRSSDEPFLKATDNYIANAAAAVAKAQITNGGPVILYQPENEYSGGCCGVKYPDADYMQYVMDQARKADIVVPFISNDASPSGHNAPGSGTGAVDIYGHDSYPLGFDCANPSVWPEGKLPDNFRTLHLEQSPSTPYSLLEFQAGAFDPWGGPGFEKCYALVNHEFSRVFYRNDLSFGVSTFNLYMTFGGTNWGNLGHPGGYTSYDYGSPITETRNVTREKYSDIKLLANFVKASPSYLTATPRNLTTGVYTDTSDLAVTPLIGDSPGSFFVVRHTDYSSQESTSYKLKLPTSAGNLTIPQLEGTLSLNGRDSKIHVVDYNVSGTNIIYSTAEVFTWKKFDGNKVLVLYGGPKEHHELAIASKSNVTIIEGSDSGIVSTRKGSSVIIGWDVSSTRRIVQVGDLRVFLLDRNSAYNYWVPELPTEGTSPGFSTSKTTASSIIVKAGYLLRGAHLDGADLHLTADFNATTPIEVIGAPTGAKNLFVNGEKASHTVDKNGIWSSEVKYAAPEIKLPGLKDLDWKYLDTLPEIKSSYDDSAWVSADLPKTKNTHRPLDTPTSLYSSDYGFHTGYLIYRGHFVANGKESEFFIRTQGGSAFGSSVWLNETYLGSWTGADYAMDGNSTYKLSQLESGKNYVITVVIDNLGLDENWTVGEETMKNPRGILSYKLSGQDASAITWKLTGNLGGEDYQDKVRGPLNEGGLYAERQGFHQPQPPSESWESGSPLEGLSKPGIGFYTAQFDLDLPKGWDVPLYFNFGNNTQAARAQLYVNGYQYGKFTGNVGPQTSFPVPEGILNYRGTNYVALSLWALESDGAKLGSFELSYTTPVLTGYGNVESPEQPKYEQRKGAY
In words: 2-nitrophenyl beta-D-galactopyranoside hydrolysis, absorbance […] nm. Format: biochemical. The conditions noted are these: read-out: β-Galactosidase inhibition / IC50 (mg/mL) (converted).

The record followed here is paper PMC6466937, “Evaluation of In Vitro Antioxidant and Antidiabetic Activities of Aristolochia longa Extracts” (Evidence-based Complementary and Alternative Medicine : eCAM, 2019).

Turning to `O=c1c(O)c(-c2ccc(O)c(O)c2)oc2cc(O)cc(O)c12` [Quercetin], the IC50 is 817 µM.
